Measurements taken from US9242006B2, “Composition of chlorin e6 stabilized within albumin for the photodynamic diagnosis and therapy of tumors” (APOCARE PHARMA GMBH, priority 2011, dated 2016).

Columns and labels:
[1] = 48 hours after administration; cited from earlier work
[2] = Storage stability of chlorin e6 in aqueous solutions with or without human serum albumin, measured by analytical HPLC; type: physicochemical; conditions: for residual active ingredient content / residual active ingredient content (HPLC area) / residual active ingredient content compared with 5 wt. % HSA / residual content of chlorin e6 (HPLC area) / residual chlorin e6 (HPLC area): 30° C.; for residual active ingredient content / residual active ingredient content (HPLC area): 5 wt. % HSA; for residual active ingredient content: all three pH values (7.0, 7.5, 8.0); for residual active ingredient content compared with 5 wt. % HSA: 10 wt. % HSA, pH 7 and pH 7.5; for residual content of chlorin e6 (HPLC area): 20 wt. % HSA; for residual content of chlorin e6 (mean) / residual active ingredient content (mean) / residual active ingredient content (HPLC area, mean) / residual active ingredient content (bound) / residual chlorin e6 (HPLC area, mean): 5° C.; for residual content of chlorin e6 (mean): pH 8.0, 1.25 wt. % HSA; for residual active ingredient content (mean): pH 8.0, 2.5 wt. % HSA; for residual active ingredient content (HPLC area, mean) / residual active ingredient content (bound): pH 8.0, 5 wt. % HSA; for residual chlorin e6 (HPLC area, mean): pH 8.0, pure buffer
Description: In order to determine the stability of a composition comprising chlorin e6 and an albumin, three buffer solutions with pH values of 7.0, 7.5 and 8.0, each of which contained potassium dihydrogen phosphate (Merck) and disodium hydrogen phosphate (Merck) as buffer salts, were prepared and sterilised.
Starting from a 20 wt. % stock solution of human serum albumin (Biotest AG), dilute solutions comprising 10 wt. %, 5 wt. % and 0 wt. % human serum albumin were then prepared by means of the above buffer solutions. For the buffering of the 20 wt. % stock solution of human serum albumin, the buffer salts were added in the form of solids directly to 20 ml aliquots of the stock solution.
Thereafter, 2 ml of each of the various buffered solutions were introduced into brown glass bottles with crimped caps, and 40 μl of a 75 mM solution of chlorin e6 sodium salt (ORPEGEN Peptide Chemicals GmbH) in water were added thereto. In this manner there were prepared aqueous solutions of chlorin e6 sodium salt having a concentration of 0 wt. %, 1.25 wt. %, 2.5 wt. %, 5 wt. %, 10 wt. % and 20 wt. % human serum albumin which had pH values of 7.0, 7.5 and 8.0. For the purpose of reproducibility of the results, the individual solutions were each made up several times.
The solutions were re-packaged in a light-tight manner and incubated at 30° C. in a drying cabinet or at 5° C. in a refrigerator. […] Maisch GmbH); eluant: 80 mM triethylammonium phosphate buffer pH 2.25/acetonitrile). The extent of the decomposition of chlorin e6 was calculated in each case by comparing the areas under the peak belonging to chlorin e6 in the HPLC diagram before and after storage.

- residual active ingredient content ([2]; 4 weeks): > 95%
- residual active ingredient content (HPLC area) ([2]; 4 weeks, pH 7.0): 95.3 % area
- residual active ingredient content (HPLC area) ([2]; 4 weeks, pH 7.5): 97.5 % area
- residual active ingredient content (HPLC area) ([2]; 4 weeks, pH 8.0): 98.6 % area
- residual active ingredient content compared with 5 wt. % HSA ([2]; 4 weeks): slightly higher
- residual content of chlorin e6 (HPLC area) ([2]; 4 weeks, pH 7.0): 94.6 % area
- residual content of chlorin e6 (HPLC area) ([2]; 4 weeks, pH 7.5): 96.4 % area
- residual content of chlorin e6 (HPLC area) ([2]; 4 weeks, pH 8.0): 96.6 % area
- residual chlorin e6 (HPLC area) ([2]; 4 weeks, pure buffer, no HSA, pH 7.0): 1.9 % area
- residual chlorin e6 (HPLC area) ([2]; 4 weeks, pure buffer, no HSA, pH 7.5): 2.4 % area
- residual chlorin e6 (HPLC area) ([2]; 4 weeks, pure buffer, no HSA, pH 8.0): 3.6 % area
- residual content of chlorin e6 (mean) ([2]; 6 months): approximately 83.6%
- residual active ingredient content (mean) ([2]; 6 months): approximately 96.6%
- residual active ingredient content (HPLC area, mean) ([2]; 6 months): 97.9 % area
- residual active ingredient content (bound) ([2]; 6 months): > 97%
- residual chlorin e6 (HPLC area, mean) ([2]; 6 months, no HSA): 1.1 % area
- residual content of chlorin e6 (mean) ([2]; 9 months): approximately 84.9%
- residual active ingredient content (mean) ([2]; 9 months): approximately 93.8%
- residual active ingredient content (HPLC area, mean) ([2]; 9 months): 96.4 % area
- residual active ingredient content (bound) ([2]; 9 months): > 96%
- residual chlorin e6 (HPLC area, mean) ([2]; 9 months, no HSA): 1.74 % area
- residual active ingredient content ([2]; 10 weeks): > 94%
- residual active ingredient content (HPLC area) ([2]; 10 weeks, pH 7.0): 94.1 % area
- residual active ingredient content (HPLC area) ([2]; 10 weeks, pH 7.5): 96.0 % area
- residual active ingredient content (HPLC area) ([2]; 10 weeks, pH 8.0): 97.8 % area
- residual active ingredient content compared with 5 wt. % HSA ([2]; 10 weeks): slightly higher
- residual content of chlorin e6 (HPLC area) ([2]; 10 weeks, pH 7.0): 91.9 % area
- residual content of chlorin e6 (HPLC area) ([2]; 10 weeks, pH 7.5): 94.0 % area
- residual content of chlorin e6 (HPLC area) ([2]; 10 weeks, pH 8.0): 95.9 % area
- residual chlorin e6 (HPLC area) ([2]; 10 weeks, pure buffer, no HSA, pH 7.0): 0 % area
- residual chlorin e6 (HPLC area) ([2]; 10 weeks, pure buffer, no HSA, pH 7.5): 0.52 % area
- residual chlorin e6 (HPLC area) ([2]; 10 weeks, pure buffer, no HSA, pH 8.0): 0.89 % area
- residual content of chlorin e6 (mean) ([2]; 12 months): approximately 69.5%
- residual active ingredient content (mean) ([2]; 12 months): approximately 93.6%
- residual active ingredient content (HPLC area, mean) ([2]; 12 months): 96.7 % area
- residual active ingredient content (bound) ([2]; 12 months): > 96%
- residual chlorin e6 (HPLC area, mean) ([2]; 12 months, no HSA): 0.26 % area
- residual chlorin e6 (HPLC area) ([2]; 4 days, addition of Na caprylate or N-acetyl-DL-tryptophan, no human serum albumin): 68.8 % area
- residual chlorin e6 (HPLC area) ([2]; 4 days, buffer solution pH 8, 5 wt. % human serum albumin): 97.8 % area
- residual chlorin e6 (HPLC area) ([2]; 4 days, non-buffered solution adjusted to pH 7, 5% human serum albumin): 97.0 % area
- residual chlorin e6 (HPLC area) ([2]; 4 days, pure buffer solution pH 8, no human serum albumin): 59.1 % area
- storage life of aqueous solution of chlorin e6 with human serum albumin ([2]; storage at 2 to 8° C., extrapolated from data of FIGS. 1 to 6): at least 12 months
Compound: C=Cc1c(C)c2cc3nc(c(CC(=O)O)c4[nH]c(cc5nc(cc1[nH]2)C(C)=C5CC)c(C)c4C(=O)O)[C@@H](CCC(=O)O)[C@@H]3C [chlorin e6]
- active substance detectable in the human organism [1]: only traces
